“Also recorded” adds a separate entry of the source.

Test [1] deals with T1, PI3Kδ (Homo sapiens, UniProt O00329). Kind of test: Protein mass spectrometry: covalent adduct assessment and competition experiment. In kind it is binding. The method, then:
Compounds were incubated with 1 μM protein in a 10:1 inhibitor:protein ratio in buffer containing 50 mM HEPES, pH 7.0 (NaOH), 150 mM NaCl, 10 mM MgCl2, 2.3 mM cholate, 10 μM CHAPS. After the desired time, the assays were quenched with a 10% formic acid solution, and analysed by LCMS using an Agilent 6224 TOF LC/MS equipped with Agilent 1200 Series autosampler. Analytes were separated on a Polymer Labs (Agilent) PLRP-S column (50 mm×1 mm internal diameter, 5 μm particle size). LC conditions were 0.5 mL·min^−1 flow rate, 70° C., 10 μL injection volume. Gradient elution with (A) water containing 0.2% (v/v) formic acid and (B) acetonitrile containing 0.2% (v/v) formic acid. Gradient conditions were initially 10% B, increasing to 30% after 0.5 min, and then linearly to 80% B over 4.5 min, prior to a 1.2 min flush with 100% B and then a 1.9 minute equilibration with 10% B prior to the next injection. Mass spectra were then deconvoluted using Agilent MassHunter Qualitative Analysis version B.06.00 over the mass range 70-170 kDa to obtain the intact protein mass.
A potent reversible ATP competitive inhibitor was incubated with 1 μM protein in a 10:1 inhibitor:protein ratio in buffer containing 50 mM HEPES, pH 7.0 (NaOH), 150 mM NaCl, 10 mM MgCl2, 2.3 mM cholate, 10 μM CHAPS at room temperature. […] The assay was quenched at 5 min and analysed using the procedure detailed above.

For another test, the system named is PI3Kδ in CD4+ T cells. Nature of the test: Cellular washout in CD4+ T cells (αCD3 stimulation, IFNγ readout). In kind it is cell-based, human. Particulars: IC50 curve 48 h after washing cells versus no wash; five donors. Here is the method: CD4+T cells were isolated from leukodepletion filter samples taken from healthy volunteers using Histopaque 1077 (Sigma Aldrich). Briefly, blood was allowed to drip into a 50 mL falcon tube and mixed with PBS (40 mL). 20 mL of diluted blood was then slowly layered onto 15 mL of Histopaque in a 50 mL falcon tube, which was then centrifuged at 800 rcf for 20 min at room temperature. The PBMC layer was then collected with a pasteur pipette into a new 50 mL falcon tube, and up to 50 mL of PBS was added. Cells were centrifuged at 300-400 rcf for 10 min at room temperature, supernatant was discarded and a second washing step was performed with PBS. Cells were then resuspended in 40 mL PBS+0.5% Bovine Serum Albumin (BSA). Isolation of CD4+T cells was performed according to manufacturer's protocol (Miltenyi Biotec, 130-096-533). 1×10^6 CD4+T cells were dispensed into a 24 well plate with a final volume of 1 mL per well. Compounds at 1000× the final assay concentration, or DMSO, were then added to wells and cells were incubated for 2 h. 2×10^5 cells and media was added to a 96-well plate (in duplicate) and classified as no-wash. […] Supernatant and cells were centrifuged at 800 rcf for 5 min and 120 μL of supernatant was collected and analysed using MSD IFNγ kit as detailed above for the human whole-blood assay. […]

The target in test [2] is T1, PI3Kδ. Nature of the test: PI3Kδ jump dilution experiment. Type of test: biochemical. The note with it: 15 min incubation, 100-fold dilution, read for 30 minutes. Here is the method:
Irreversibility of the PI3Kδ-Inhibitor complex, and reversibility of the non-covalent controls, was determined by jump-dilution assay as follows:
PI3Kδ enzyme was made up to a 100× assay concentration (final assay concentration=6 nM) in buffer solution (contains 50 mM HEPES pH 7.0 (NaOH), 150 mM NaCl, 10 mM MgCl2, 2.3 mM sodium cholate, 10 μM CHAPS made up in milliQ water).
100× enzyme solution was added to compound wells (20 μL/well), and incubated for 15 mins, after which point the assay was diluted 100-fold with commercially available ADP QUEST substrate solution, available from DiscoverX (calatog number: 90-0071), (3200 μL DiscoverX Reagent A, 6400 μL DiscoverX Reagent B, 1 mM ATP and 40 μM PIP2). Production of fluorescence signal was then measured immediately using a Tecan Safire II plate reader at 30 second intervals for 30 minutes (λex=544 nm, λem=590 nm).

The target in the next test is PI3Kα (Homo sapiens, UniProt P42336). Nature of the test: PI3K HTRF assay, PI3K-alpha. Also: 250 µM ATP. Particulars: read-out: pIC50 PI3Kα (converted). In kind it is biochemical. The method, then: (§1) The binding of compounds to PI3K-alpha/beta/delta/gamma is determined by homogeneous time resolved fluorescence (HTRF) assays as follows;
(§2) Briefly, solid compound is dissolved in 100% DMSO at a concentration of 2 mM. Dilutions are prepared in 100% DMSO using a 1 in 4 serial step dilution. The dilutions are transferred to black low volume Greiner assay plates ensuring that the DMSO concentration is constant across the plate at 1% (0.1 μL/well).
(§3) PI3K Reaction Buffer (contains 50 mM HEPES pH 7.0 (NaOH), 150 mM NaCl, 10 mM MgCl2, 2.3 mM sodium cholate, […] CHAPS made up in milliQ water). Fresh DTT is added at a final concentration of 1 mM on the day of use.
(§4) Enzyme solutions: 1× PI3K Assay Buffer containing: • 550 pM PI3K-Alpha enzyme (275 pM final assay concentration) • 800 pM PI3K-Beta enzyme (400 pM final assay concentration) • 3 nM PI3K-Delta enzyme (1.5 nM final assay concentration) • 10 nM PI3K-Gamma enzyme (5 nM final assay concentration)
(§5) These concentrations are optimal to achieve a signal:background of between 1.5-4.5. The enzyme solution is added to columns 1-24 (3 μL/well) and plates are incubated for 15 minutes at room temperature.
(§6) Substrate solution: 1× PI3K Assay Buffer containing: • PI3K-Alpha: 500 μM ATP, 20 μM PIP2 and 120 nM biotin-PIP3.
(§7) This is added to all wells and plates are incubated for 1 hour at room temperature.
(§8) Detection solution: PI3K Detection Buffer (contains 50 mM HEPES pH 7.0 (HCl), 150 mM NaCl, 2.3 mM sodium cholate, 10 μM CHAPS, 240 mM potassium fluoride) containing 2 mM DTT (2× final assay concentration), 90 nM GRP-1 PH domain, 300 nM Streptavidin-APC and 24 nM Europium-anti-GST (6× final assay concentrations).
(§9) This is mixed left at room temperature (protected from light).
(§10) STOP solution: PI3K STOP Buffer (contains 50 mM HEPES pH 7.0 (HCl), 150 mM NaCl, 2.3 mM sodium cholate, 10 μM CHAPS, 150 mM EDTA).
(§11) Detection solution is diluted 1:1 with STOP solution and added to all wells (3 μL/well). Plates are covered and incubated on the bench for 45-60 minutes.
(§12) Plates are read on a PerkinElmer Envision, measuring TR-FRET between the complex formed between the GST-tagged PH domain and biotinylated PIP3 which both recruit fluorophores (Europium-labelled anti-GST & Strep-APC respectively). In the […] of an inhibitor, this complex is disrupted by the competitive action of non-biotinylated PIP3 (formed in the assay by the phosphorylation of PIP2 by the kinase & ATP). From this, the ratio of acceptor/donor was calculated (λex=317 nm, Δem donor=615 nm, Δem acceptor=665 nm) and used for data analysis.
(Time-resolved FRET reads energy transfer from a long-lived donor to a nearby acceptor.)

Another test concerns the target PI3Kβ (Homo sapiens, UniProt P42338). Nature of the test: PI3K HTRF assay, PI3K-beta. Also: 400 µM ATP. In kind it is biochemical. Particulars: read-out: pIC50 PI3Kβ (converted). The method, then:
as §1, §2, §3, §4, §5, §6, §7, §8, §9, §10, §11, §12

The next test deals with PI3Kγ (Homo sapiens, UniProt P48736). Kind of test: PI3K HTRF assay, PI3K-gamma. Also: 15 µM ATP. The note with it: read-out: pIC50 PI3Kγ (converted). Type of test: biochemical. Here is the method: as §1, §2, §3, §4, §5, §6, §7, §8, §9, §10, §11, §12
Chain of PI3Kγ (P48736 whole entry, species assumed): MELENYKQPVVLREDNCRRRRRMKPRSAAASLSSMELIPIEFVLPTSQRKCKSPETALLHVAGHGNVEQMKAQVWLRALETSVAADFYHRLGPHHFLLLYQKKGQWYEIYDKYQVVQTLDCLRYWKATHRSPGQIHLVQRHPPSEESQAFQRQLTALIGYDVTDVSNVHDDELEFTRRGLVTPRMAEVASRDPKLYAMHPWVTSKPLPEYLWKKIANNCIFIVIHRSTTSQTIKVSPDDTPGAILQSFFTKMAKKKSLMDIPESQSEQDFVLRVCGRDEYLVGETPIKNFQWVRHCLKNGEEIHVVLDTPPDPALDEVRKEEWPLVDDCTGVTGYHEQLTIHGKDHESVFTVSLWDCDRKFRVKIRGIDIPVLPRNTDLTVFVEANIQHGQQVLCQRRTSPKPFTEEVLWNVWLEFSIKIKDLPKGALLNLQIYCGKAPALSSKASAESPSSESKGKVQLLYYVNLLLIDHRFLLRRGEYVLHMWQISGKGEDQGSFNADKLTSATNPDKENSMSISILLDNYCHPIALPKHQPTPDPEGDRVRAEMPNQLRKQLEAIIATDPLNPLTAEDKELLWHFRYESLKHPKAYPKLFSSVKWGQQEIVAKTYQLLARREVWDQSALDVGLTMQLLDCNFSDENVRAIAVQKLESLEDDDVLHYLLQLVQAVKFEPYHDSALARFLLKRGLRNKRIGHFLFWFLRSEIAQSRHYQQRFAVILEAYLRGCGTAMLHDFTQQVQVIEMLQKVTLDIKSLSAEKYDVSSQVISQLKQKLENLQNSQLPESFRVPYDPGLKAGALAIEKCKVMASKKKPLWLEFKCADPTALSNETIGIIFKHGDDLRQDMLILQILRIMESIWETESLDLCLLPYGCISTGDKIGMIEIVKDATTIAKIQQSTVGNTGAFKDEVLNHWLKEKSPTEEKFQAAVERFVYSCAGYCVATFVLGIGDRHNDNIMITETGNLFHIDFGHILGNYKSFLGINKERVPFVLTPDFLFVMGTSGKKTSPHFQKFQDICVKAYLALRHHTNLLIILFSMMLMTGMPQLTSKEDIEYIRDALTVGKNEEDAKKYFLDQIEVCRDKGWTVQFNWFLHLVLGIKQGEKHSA

T1 sequence (O00329 whole entry): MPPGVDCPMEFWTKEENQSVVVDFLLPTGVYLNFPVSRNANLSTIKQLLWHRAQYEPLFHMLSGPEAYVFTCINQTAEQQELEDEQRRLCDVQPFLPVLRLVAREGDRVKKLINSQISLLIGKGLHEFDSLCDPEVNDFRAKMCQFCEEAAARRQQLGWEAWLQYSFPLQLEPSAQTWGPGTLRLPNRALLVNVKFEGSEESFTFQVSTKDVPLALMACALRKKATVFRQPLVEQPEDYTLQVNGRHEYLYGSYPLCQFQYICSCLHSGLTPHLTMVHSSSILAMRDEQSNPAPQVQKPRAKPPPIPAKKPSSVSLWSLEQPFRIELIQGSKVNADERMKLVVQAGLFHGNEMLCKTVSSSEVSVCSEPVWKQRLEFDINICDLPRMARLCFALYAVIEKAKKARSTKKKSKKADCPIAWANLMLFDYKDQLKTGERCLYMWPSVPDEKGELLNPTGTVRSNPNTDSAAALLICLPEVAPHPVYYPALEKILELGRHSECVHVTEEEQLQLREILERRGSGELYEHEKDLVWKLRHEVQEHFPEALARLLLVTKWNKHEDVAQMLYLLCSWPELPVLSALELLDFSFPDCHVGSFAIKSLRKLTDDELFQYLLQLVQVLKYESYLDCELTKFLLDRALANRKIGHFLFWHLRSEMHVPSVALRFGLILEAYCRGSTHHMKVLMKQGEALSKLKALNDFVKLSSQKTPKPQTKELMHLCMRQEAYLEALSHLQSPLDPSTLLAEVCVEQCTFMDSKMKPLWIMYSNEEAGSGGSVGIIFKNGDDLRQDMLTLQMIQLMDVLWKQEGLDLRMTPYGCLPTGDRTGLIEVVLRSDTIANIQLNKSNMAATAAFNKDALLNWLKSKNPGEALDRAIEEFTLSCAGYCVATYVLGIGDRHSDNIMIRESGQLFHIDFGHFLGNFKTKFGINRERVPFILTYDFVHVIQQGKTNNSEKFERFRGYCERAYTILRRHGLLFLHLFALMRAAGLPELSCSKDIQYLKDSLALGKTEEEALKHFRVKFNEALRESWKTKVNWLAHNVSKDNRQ
T1 sequence (P27986 whole entry partner): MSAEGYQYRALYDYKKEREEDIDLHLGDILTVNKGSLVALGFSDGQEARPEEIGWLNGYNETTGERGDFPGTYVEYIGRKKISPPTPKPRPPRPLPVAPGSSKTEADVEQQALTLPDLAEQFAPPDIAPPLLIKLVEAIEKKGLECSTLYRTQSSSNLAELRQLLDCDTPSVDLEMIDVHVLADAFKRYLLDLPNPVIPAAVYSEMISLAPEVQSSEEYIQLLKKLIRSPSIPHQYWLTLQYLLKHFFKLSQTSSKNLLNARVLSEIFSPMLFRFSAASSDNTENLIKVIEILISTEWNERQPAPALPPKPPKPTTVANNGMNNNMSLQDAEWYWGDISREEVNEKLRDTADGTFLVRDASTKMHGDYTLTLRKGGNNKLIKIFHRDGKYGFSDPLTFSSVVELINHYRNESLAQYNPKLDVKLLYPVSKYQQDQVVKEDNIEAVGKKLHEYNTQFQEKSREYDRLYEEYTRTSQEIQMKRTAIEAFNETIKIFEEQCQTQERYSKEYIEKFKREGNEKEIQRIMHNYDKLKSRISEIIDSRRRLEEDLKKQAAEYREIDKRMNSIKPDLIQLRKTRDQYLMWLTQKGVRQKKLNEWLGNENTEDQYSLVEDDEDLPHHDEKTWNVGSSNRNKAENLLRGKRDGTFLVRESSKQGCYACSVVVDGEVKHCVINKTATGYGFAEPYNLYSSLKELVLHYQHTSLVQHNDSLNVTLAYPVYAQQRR
Chain of PI3Kα (P42336 whole entry, species assumed): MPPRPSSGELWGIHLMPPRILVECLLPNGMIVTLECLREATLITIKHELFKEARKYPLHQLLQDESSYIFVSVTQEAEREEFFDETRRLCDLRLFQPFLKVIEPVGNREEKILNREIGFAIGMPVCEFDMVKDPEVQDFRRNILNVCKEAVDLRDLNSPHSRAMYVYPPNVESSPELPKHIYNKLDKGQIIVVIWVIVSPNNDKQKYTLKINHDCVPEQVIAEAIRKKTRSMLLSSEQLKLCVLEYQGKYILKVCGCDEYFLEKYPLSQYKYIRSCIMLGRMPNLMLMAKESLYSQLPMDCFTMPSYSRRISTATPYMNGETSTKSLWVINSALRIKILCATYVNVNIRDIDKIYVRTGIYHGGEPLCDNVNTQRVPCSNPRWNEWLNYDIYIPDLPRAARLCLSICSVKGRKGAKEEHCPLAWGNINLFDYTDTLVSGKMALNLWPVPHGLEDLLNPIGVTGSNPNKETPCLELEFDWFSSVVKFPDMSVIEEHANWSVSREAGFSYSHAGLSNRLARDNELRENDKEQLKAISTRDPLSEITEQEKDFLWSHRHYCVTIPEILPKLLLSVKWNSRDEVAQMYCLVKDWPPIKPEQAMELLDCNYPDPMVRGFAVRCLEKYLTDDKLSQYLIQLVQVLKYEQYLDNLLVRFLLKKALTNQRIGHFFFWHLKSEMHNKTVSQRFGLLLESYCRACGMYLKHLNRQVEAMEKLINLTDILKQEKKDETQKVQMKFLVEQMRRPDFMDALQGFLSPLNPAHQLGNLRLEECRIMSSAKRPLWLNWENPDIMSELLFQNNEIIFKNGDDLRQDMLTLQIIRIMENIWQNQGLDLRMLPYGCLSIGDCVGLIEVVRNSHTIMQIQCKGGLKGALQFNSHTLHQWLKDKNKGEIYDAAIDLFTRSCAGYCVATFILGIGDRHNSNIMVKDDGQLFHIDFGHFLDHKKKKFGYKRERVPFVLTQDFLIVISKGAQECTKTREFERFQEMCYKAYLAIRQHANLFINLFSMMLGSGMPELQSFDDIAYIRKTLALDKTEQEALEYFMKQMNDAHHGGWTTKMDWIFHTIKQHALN
Chain of PI3Kα (P27986 whole entry partner, species assumed): as the sequence (P27986 whole entry partner) above
Chain of PI3Kβ (P42338 whole entry, species assumed): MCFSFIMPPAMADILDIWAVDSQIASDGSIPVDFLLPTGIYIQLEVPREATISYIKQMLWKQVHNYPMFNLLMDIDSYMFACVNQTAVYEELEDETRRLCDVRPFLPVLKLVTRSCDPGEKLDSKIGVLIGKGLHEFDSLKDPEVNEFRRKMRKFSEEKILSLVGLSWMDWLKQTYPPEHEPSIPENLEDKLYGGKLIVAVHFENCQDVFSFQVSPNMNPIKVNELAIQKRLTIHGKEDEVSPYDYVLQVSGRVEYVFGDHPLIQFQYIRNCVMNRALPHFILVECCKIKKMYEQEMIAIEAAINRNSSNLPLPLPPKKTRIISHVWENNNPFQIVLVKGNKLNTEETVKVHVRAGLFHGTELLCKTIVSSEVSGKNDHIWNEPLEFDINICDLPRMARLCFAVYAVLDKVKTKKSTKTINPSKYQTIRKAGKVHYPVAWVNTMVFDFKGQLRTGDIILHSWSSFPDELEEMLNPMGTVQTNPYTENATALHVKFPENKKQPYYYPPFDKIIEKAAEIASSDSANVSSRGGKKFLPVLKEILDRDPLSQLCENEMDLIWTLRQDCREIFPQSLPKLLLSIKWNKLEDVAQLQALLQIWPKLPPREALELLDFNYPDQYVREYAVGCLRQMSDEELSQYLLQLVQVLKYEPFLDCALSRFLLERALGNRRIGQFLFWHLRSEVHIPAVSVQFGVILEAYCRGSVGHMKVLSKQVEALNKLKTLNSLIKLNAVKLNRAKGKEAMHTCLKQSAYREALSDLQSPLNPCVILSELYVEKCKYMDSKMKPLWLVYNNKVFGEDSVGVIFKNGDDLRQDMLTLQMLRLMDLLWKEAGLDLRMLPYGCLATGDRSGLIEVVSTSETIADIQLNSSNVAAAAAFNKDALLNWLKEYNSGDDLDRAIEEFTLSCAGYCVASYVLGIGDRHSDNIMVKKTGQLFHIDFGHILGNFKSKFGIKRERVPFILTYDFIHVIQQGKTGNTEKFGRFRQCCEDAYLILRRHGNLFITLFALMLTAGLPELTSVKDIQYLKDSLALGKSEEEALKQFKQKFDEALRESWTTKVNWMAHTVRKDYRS
Chain of PI3Kβ (P27986 whole entry partner, species assumed): as the sequence (P27986 whole entry partner) above

In the case of `COc1ncc(-c2cc(-c3ncc(CN4CCN(C(C)C)CC4)o3)c3cn[nH]c3c2)cc1C(=O)Oc1ccc(F)cc1` [Example 7, 4-Fluorophenyl 5-(4-(5-((4-isopropylpiperazin-1-yl)methyl)oxazol-2-yl)-1H-indazol-6-yl)-2-methoxynicotinate], at PI3Kδ [1] (10:1 inhibitor:protein ratio, after 20 h (overnight)), the “Additional adducts on PI3Kδ” value was “no additional adducts”. On PI3Kδ [1] (10:1 inhibitor:protein, incubated overnight), the “Covalent modification of PI3Kδ (protein mass spectrometry)” value was “covalently modified”. In addition, the “Adduct formation after preincubation of enzyme with potent ATP-competitive inhibitor” value at PI3Kδ [1] (competitor 10:1 for 15 min, then 2 equivalents of covalent inhibitor, quenched at 5 min) was “prevented covalent modification; also recorded: attentuated formation of this adduct”. Also, in the test on PI3Kδ in CD4+ T cells, the “Duration of action at PI3Kδ in CD4+ T cells” value was “at least 48 h”. Further, at PI3Kδ [2], the “Recovery of enzyme activity after jump dilution” value is recorded as “No recovery of activity”. In addition, the IC50 at PI3Kα was 3.16 µM; on PI3Kβ it was 5.01 µM; at PI3Kγ, 15.8 µM.

(Values after patent US20190161480A1, “Chemical Compounds” (GLAXOSMITHKLINE INTELLECTUAL PROPERTY DEVELOPMENT LIMITED, priority 2016, published 2019).)
